Measured values as given in patent US20240132431A1, “METHOD FOR ALKYLATING ACIDIC FUNCTIONAL GROUP” (Chugai Seiyaku Kabushiki Kaisha, priority 2021, published 2024).

Target: T1, Bcl-2 protein (Recombinant Human Bcl-2 Protein) (Homo sapiens, UniProt P10415)
T1 construct: purchased Novus NBP2-34889
Experiment: Binding evaluation of mixture library compounds to Bcl-2 using AS-MS (affinity selection mass spectrometry)
Conditions: for ASMS ratio (%) n = 1 / ASMS ratio (%) n = 2: ASMS Ratio(%)=(A−C)/B×100; for ASMS ratio (%) n = 1: replicate n = 1; for ASMS ratio (%) n = 2: replicate n = 2
Summary of the method: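 Pooled library of ~1200 compounds ([…] each, final) incubated with recombinant human Bcl-2 (20 μM final) in Tris-HCl pH 7.4, NaCl, Tween-20, DTT buffer, dark, 23° C., 1 h. Bound fraction recovered by SEC spin column, organic extraction, reversed-phase LC/MS. ASMS Ratio (%) = (A−C)/B×100 versus protein-free standard and SEC blank.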

[1] = AS-MS, mixture of 1200 compounds, Bcl-2
[2] = AS-MS on the mixture of 1200 library compounds

T1 sequence (P10415 whole entry): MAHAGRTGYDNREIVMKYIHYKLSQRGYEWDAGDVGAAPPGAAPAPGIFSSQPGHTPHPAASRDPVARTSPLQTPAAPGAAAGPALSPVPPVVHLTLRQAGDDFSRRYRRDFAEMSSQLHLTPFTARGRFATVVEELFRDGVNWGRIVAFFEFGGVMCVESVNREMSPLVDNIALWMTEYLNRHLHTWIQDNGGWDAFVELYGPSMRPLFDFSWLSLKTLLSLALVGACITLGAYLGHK

Molecule: CCOc1cccc(-c2cc(C(=O)N3CCN(c4ccc(C(=O)NCC(F)(F)F)cc4)CC3)cc(C(C)(C)C)c2)c1 [B1K037-01, 4-[4-[3-tert-Butyl-5-(3-ethoxyphenyl)benzoyl]piperazin-1-yl]-N-(2,2,2-trifluoroethyl)benzamide]
- ASMS ratio (%) n = 1 [1]: 0.8%
- ASMS ratio (%) n = 2 [1]: 1.9%

Molecule: CCOc1cccc(-c2ccc(CN3CCN(c4ccc(C(=O)NS(=O)(=O)c5ccc(NCCSc6ccccc6)c(C(F)(F)F)c5)nn4)CC3)c3ccccc23)c1 [B2R091-01, 6-[4-[[4-(3-Ethoxyphenyl)naphthalen-1-yl]methyl]piperazin-1-yl]-N-[4-(2-phenylsulfanylethylamino)-3-(trifluoromethyl)phenyl]sulfonylpyridazine-3-carboxamide]
- ASMS ratio (%) (n = 1): −3.5%
- ASMS ratio (%) (n = 2): 1.8%

Molecule: 6-[4-[3-[4-(5-Ethoxypyridin-3-yl)pyrazol-1-yl]-5-(trifluoromethyl)benzoyl]piperazin-1-yl]-N-propylpyridazine-3-carboxamide [B1M030-01]
- ASMS ratio (%) n = 1 [1]: 0.0%
- ASMS ratio (%) n = 2 [1]: −5.9%

Molecule: CCOc1cccc(C#Cc2ccccc2C(=O)N2CCN(c3ccc(C(=O)NS(C)(=O)=O)cc3)CC2)c1 [B2I029-01, 4-[4-[2-[2-(3-Ethoxyphenyl)ethynyl]benzoyl]piperazin-1-yl]-N-methylsulfonylbenzamide]
- ASMS ratio (%) n = 1 (AS-MS, mixture library, Bcl-2): 0.0%
- ASMS ratio (%) n = 2 (AS-MS, mixture library, Bcl-2): 0.0%

Molecule: CCOc1cccc(-c2ccc(C(=O)N3CCN(c4ccc(C(=O)N(C)CC56CC7CC(CC(C7)C5)C6)nn4)CC3)cc2F)c1 [B3A005-01, N-(1-Adamantylmethyl)-6-[4-[4-(3-ethoxyphenyl)-3-fluorobenzoyl]piperazin-1-yl]-N-methylpyridazine-3-carboxamide]
- ASMS ratio (%) n = 1 [2]: −1.5%
- ASMS ratio (%) n = 2 [2]: −4.8%

Molecule: CCOc1cccc(-c2cnn(-c3cc(C(=O)N4CCN(c5ccc(C(=O)NS(=O)(=O)CCC(F)(F)F)nn5)CC4)cc(C(F)(F)F)c3)c2)c1 [B2N021-01, 6-[4-[3-[4-(3-Ethoxyphenyl)pyrazol-1-yl]-5-(trifluoromethyl)benzoyl]piperazin-1-yl]-N-(3,3,3-trifluoropropylsulfonyl)pyridazine-3-carboxamide]
- ASMS ratio (%) (n = 2): 0.0%

Molecule: CCOc1cccc(-c2ccc(C(=O)N3CCN(c4ccc(C(=O)NS(C)(=O)=O)cc4)CC3)cc2C)c1 [B2I025-01, 4-[4-[4-(3-Ethoxyphenyl)-3-methylbenzoyl]piperazin-1-yl]-N-methylsulfonylbenzamide]
- ASMS ratio (%) n = 1 (AS-MS, mixture library, Bcl-2): 0.0%
- ASMS ratio (%) n = 2 (AS-MS, mixture library, Bcl-2): 0.0%

Molecule: CCOc1cncc(C#Cc2ccccc2C(=O)N2CCN(c3ccc(C(=O)N(C)CC45CC6CC(CC(C6)C4)C5)nn3)CC2)c1 [B3A008-01, N-(1-Adamantylmethyl)-6-[4-[2-[2-(5-ethoxypyridin-3-yl)ethynyl]benzoyl]piperazin-1-yl]-N-methylpyridazine-3-carboxamide]
- ASMS ratio (%) n = 1 [2]: 0.6%
- ASMS ratio (%) n = 2 [2]: −0.3%

Molecule: 4-[4-[2-[2-(3-Ethoxyphenyl)ethynyl]benzoyl]piperazin-1-yl]-N-propylbenzamide [B1M097-01]
- ASMS ratio (%) n = 1 [2]: 1.1%
- ASMS ratio (%) n = 2 [2]: 0.3%

Molecule: CCOc1cncc(-c2ccccc2CN2CCN(c3ccc(C(=O)NS(=O)(=O)C(C)(C)C)nn3)CC2)c1 [B2L072-01, N-tert-Butylsulfonyl-6-[4-[[2-(5-ethoxypyridin-3-yl)phenyl]methyl]piperazin-1-yl]pyridazine-3-carboxamide]
- ASMS ratio (%) (n = 1): −10.7%
- ASMS ratio (%) (n = 2): 8.3%

Molecule: CCOc1cncc(-c2ccc(C(=O)N3CCN(c4ccc(C(=O)NS(=O)(=O)C(C)(C)C)cc4)CC3)cc2C)c1 [B2L026-01, N-tert-Butylsulfonyl-4-[4-[4-(5-ethoxypyridin-3-yl)-3-methylbenzoyl]piperazin-1-yl]benzamide]
- ASMS ratio (%) (n = 1): 0.0%
- ASMS ratio (%) (n = 2): 0.0%

Molecule: CCOc1cncc(-c2csc(C(=O)N3CCN(c4ccc(C(=O)NCC56CC7CC(CC(C7)C5)C6)nn4)CC3)c2)c1 [B1A002-01]
- ASMS ratio (%) n = 1 [1]: 0.0%
- ASMS ratio (%) n = 2 [1]: 4.9%

Molecule: CCOc1cccc(C#Cc2cncc(C(=O)N3CCN(c4ccc(C(=O)N(CC)CC)nn4)CC3)c2)c1 [B4J009-01, 6-[4-[5-[2-(3-Ethoxyphenyl)ethynyl]pyridine-3-carbonyl]piperazin-1-yl]-N,N-diethylpyridazine-3-carboxamide]
- ASMS ratio (%) n = 1 [2]: 0.0%
- ASMS ratio (%) n = 2 [2]: 0.0%

Molecule: CCOc1cccc(-c2ccc(C(=O)N3CCN(c4ccc(C(=O)N(C)CC56CC7CC(CC(C7)C5)C6)nn4)CC3)c3ccccc23)c1 [B3A013-01, N-(1-Adamantylmethyl)-6-[4-[4-(3-ethoxyphenyl)naphthalene-1-carbonyl]piperazin-1-yl]-N-methylpyridazine-3-carboxamide]
- ASMS ratio (%) n = 1 [2]: 10.2%
- ASMS ratio (%) n = 2 [2]: −20.0%

Molecule: 6-[4-[3-[4-(3-Ethoxyphenyl)pyrazol-1-yl]-5-(trifluoromethyl)benzoyl]piperazin-1-yl]-N-propylpyridazine-3-carboxamide [B1M024-01]
- ASMS ratio (%) n = 1 [1]: 0.0%
- ASMS ratio (%) n = 2 [1]: 0.0%

Molecule: CCOc1cncc(-c2cc(CN3CCN(c4ccc(C(=O)NS(=O)(=O)c5ccc(NCCSc6ccccc6)c([N+](=O)[O-])c5)cc4)CC3)cc(OC(C)C)c2)c1 [B2Q058-01, 4-[4-[[3-(5-Ethoxypyridin-3-yl)-5-propan-2-yloxyphenyl]methyl]piperazin-1-yl]-N-[3-nitro-4-(2-phenylsulfanylethylamino)phenyl]sulfonylbenzamide]
- ASMS ratio (%) n = 1 (AS-MS, mixture library, Bcl-2): 3.7%
- ASMS ratio (%) n = 2 (AS-MS, mixture library, Bcl-2): 3.7%

Molecule: CCOc1cccc(-c2csc(CN3CCN(c4ccc(C(=O)NS(C)(=O)=O)cc4)CC3)c2)c1 [B2I067-01, 4-[4-[[4-(3-Ethoxyphenyl)thiophen-2-yl]methyl]piperazin-1-yl]-N-methylsulfonylbenzamide]
- ASMS ratio (%) (n = 1): 0.0%
- ASMS ratio (%) (n = 2): 0.0%

Molecule: CCOc1cncc(-c2cc(CN3CCN(c4ccc(C(=O)NS(C)(=O)=O)nn4)CC3)cc(OC(C)C)c2)c1 [B2I084-01]
- ASMS ratio (%) (n = 1): −0.9%
- ASMS ratio (%) (n = 2): −1.5%

Molecule: CCOc1cncc(C#Cc2ccccc2C(=O)N2CCN(c3ccc(C(=O)Nc4ccc(OC)cc4)nn3)CC2)c1 [B1O008-01, 6-[4-[2-[2-(5-Ethoxypyridin-3-yl)ethynyl]benzoyl]piperazin-1-yl]-N-(4-methoxyphenyl)pyridazine-3-carboxamide]
- ASMS ratio (%) n = 1 [2]: 1.1%
- ASMS ratio (%) n = 2 [2]: 1.3%

Molecule: CCOc1cccc(-c2ccc(CN3CCN(c4ccc(C(=O)NS(=O)(=O)CC56CC7CC(CC(C7)C5)C6)nn4)CC3)c(CC)c2)c1 [B2A075-01, N-(1-Adamantylmethylsulfonyl)-6-[4-[[4-(3-ethoxyphenyl)-2-ethylphenyl]methyl]piperazin-1-yl]pyridazine-3-carboxamide]
- ASMS ratio (%) n = 1 (AS-MS, mixture library, Bcl-2): 4.6%
- ASMS ratio (%) n = 2 (AS-MS, mixture library, Bcl-2): 4.4%

Molecule: CCOc1cccc(-c2ccc(CN3CCN(c4ccc(C(=O)NS(C)(=O)=O)cc4)CC3)cc2C)c1 [B2I047-01]
- ASMS ratio (%) (n = 1): 0.8%
- ASMS ratio (%) (n = 2): 1.4%

Molecule: CCOc1cncc(-c2ccccc2CCC(=O)N2CCN(c3ccc(C(=O)N(CC)CC)cc3)CC2)c1 [B4J034-01, 4-[4-[3-[2-(5-Ethoxypyridin-3-yl)phenyl]propanoyl]piperazin-1-yl]-N,N-diethylbenzamide]
- ASMS ratio (%) n = 1 [2]: −0.7%
- ASMS ratio (%) n = 2 [2]: 0.9%

Molecule: CCOc1cncc(-c2cc(OC)c(CN3CCN(c4ccc(C(=O)Nc5ccc(OC)cc5)nn4)CC3)c(OC)c2)c1 [B1O086-01, 6-[4-[[4-(5-Ethoxypyridin-3-yl)-2,6-dimethoxyphenyl]methyl]piperazin-1-yl]-N-(4-methoxyphenyl)pyridazine-3-carboxamide]
- ASMS ratio (%) n = 2 [2]: −0.4%

Molecule: CCOc1cncc(-c2ccc(CN3CCN(c4ccc(C(=O)NS(=O)(=O)C(C)(C)C)cc4)CC3)cc2F)c1 [B2L052-01]
- ASMS ratio (%) (n = 1): 2.7%
- ASMS ratio (%) (n = 2): 1.0%

Molecule: 4-[4-[[4-(5-Ethoxypyridin-3-yl)naphthalen-1-yl]methyl]piperazin-1-yl]-N-propylbenzamide [B1M046-01]
- ASMS ratio (%) n = 1 [1]: 0.7%
- ASMS ratio (%) n = 2 [1]: −1.2%

Molecule: CCOc1cncc(-c2ccc(C(=O)N3CCN(c4ccc(C(=O)NCC56CC7CC(CC(C7)C5)C6)cc4)CC3)c3ccccc23)c1 [B1A036-01, N-(1-Adamantylmethyl)-4-[4-[4-(5-ethoxypyridin-3-yl)naphthalene-1-carbonyl]piperazin-1-yl]benzamide]
- ASMS ratio (%) n = 1 [1]: 0.4%
- ASMS ratio (%) n = 2 [1]: 3.1%

Molecule: CCOc1cncc(C#Cc2cc(C(=O)N3CCN(c4ccc(C(=O)N(CC)CC)nn4)CC3)cc(C(F)(F)F)c2)c1 [B4J020-01, 6-[4-[3-[2-(5-Ethoxypyridin-3-yl)ethynyl]-5-(trifluoromethyl)benzoyl]piperazin-1-yl]-N,N-diethylpyridazine-3-carboxamide]
- ASMS ratio (%) n = 1 [2]: 0.0%
- ASMS ratio (%) n = 2 [2]: 0.0%

Molecule: CCOc1cncc(-c2ccccc2CCC(=O)N2CCN(c3ccc(C(=O)NS(=O)(=O)c4ccc(NCCSc5ccccc5)c(C(F)(F)F)c4)cc3)CC2)c1 [B2R034-01, 4-[4-[3-[2-(5-Ethoxypyridin-3-yl)phenyl]propanoyl]piperazin-1-yl]-N-[4-(2-phenylsulfanylethylamino)-3-(trifluoromethyl)phenyl]sulfonylbenzamide]
- ASMS ratio (%) (n = 1): 0.1%
- ASMS ratio (%) (n = 2): −1.3%
